Our source for the IC50 values is patent publication US20250034159A1, “INHIBITORS OF EPIDERMAL GROWTH FACTOR RECEPTOR” (ORIC Pharmaceuticals, Inc., priority 2021, published 2025).

Read-outs that look alike come from different tables or passages of the source.

Assay [1] concerns the target recombinant human EGFR exon 19 deletion/C797S double mutant protein (Homo sapiens (Human), UniProt P00533, C797S/DEL746-750). As to the kind of experiment: Biological Activity Assay C: biochemical assay against EGFR exon 19 deletion/C797S protein (EGFR d19/CS). In short, it runs like this: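 Compounds were tested as 16-point serial dilutions (final DMSO 2.5%) with a Phosphosens peptide sensor/ATP working solution (40 uM/4 mM). The signal was read kinetically over 90 cycles at 120 s intervals. IC50s came from 4-parameter fits of per-well slopes.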

For the next assay, the system named is Ba/F3_EGFR WT cells. As to the kind of experiment: Biological Activity Assay D: BaF3 cell proliferation assay, EGFR wild-type (BaF3 WT). Format: cell-based. To be noted: Ba/F3 EGFR, read-out: BaF3 WT IC50.
A further assay has as its system BaF3_EGFR LR/CS cells. Put plainly: Biological Activity Assay D: BaF3 cell proliferation assay, EGFR L858R/C797S mutant (BaF3 LR/CS). It is filed as cell-based. To be noted: Ba/F3 EGFR, read-out: BaF3 LR/CS IC50.
A further assay relates to BaF3_EGFR d19/CS cells. As to the kind of experiment: Biological Activity Assay D: BaF3 cell proliferation assay, EGFR exon 19 deletion/C797S (BaF3 d19/CS). To be noted: Ba/F3 EGFR, read-out: BaF3 d19/CS IC50. Format: cell-based.
Where [2] appears, read: Ba/F3_EGFR WT cells, ~72 hours, CellTiter-Glo.
Where [3] appears, read: BaF3_EGFR LR/CS cells, ~72 hours, CellTiter-Glo.
Where [4] appears, read: BaF3_EGFR d19/CS cells, ~72 hours, CellTiter-Glo.

Chain of recombinant human EGFR exon 19 deletion/C797S double mutant protein (P00533 other isoform, or with tags, fused parts or gaps C797S/del 1-668/del 746-750 limits assumed): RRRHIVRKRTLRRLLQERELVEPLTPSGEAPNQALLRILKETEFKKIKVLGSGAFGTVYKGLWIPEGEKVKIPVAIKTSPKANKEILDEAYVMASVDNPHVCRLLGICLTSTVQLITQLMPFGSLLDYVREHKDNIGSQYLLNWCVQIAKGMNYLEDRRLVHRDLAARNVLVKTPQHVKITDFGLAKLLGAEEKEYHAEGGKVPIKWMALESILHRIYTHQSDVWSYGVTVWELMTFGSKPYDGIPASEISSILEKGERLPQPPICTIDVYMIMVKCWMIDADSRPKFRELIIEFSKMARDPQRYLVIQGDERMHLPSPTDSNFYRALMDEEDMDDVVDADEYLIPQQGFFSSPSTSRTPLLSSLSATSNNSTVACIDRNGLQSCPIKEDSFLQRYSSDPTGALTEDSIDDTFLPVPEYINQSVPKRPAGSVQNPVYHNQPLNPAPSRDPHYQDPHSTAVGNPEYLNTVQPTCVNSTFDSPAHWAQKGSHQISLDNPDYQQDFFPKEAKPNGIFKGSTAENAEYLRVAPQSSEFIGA

Regarding `Fc1ccc(-c2nn(C[C@H]3C[C@H](F)C3)cc2-c2ncnc3oc(-c4ccccc4)cc23)cc1` [Example 124, 4-[1-{[(1r,3r)-3-fluorocyclobutyl]methyl}-3-(4-fluorophenyl)-1H-pyrazol-4-yl]-6-phenylfuro[2,3-d]pyrimidine], the IC50 in assay [1] is 3.02 nM; with Ba/F3_EGFR WT cells (setting [2]), 4270 nM; with BaF3_EGFR LR/CS cells (setting [3]), 230 nM; in the assay on BaF3_EGFR d19/CS cells (setting [4]) it was 611 nM.

Regarding `Cn1cc(-c2cc3c(-c4cn(C5CS(=O)(=O)C5)nc4-c4ccc(F)cc4)ncnc3o2)nn1` [Example 244, 3-{3-(4-fluorophenyl)-4-[6-(1-methyl-1H-1,2,3-triazol-4-yl)furo[2,3-d]pyrimidin-4-yl]-1H-pyrazol-1-yl}-16-thietane-1,1-dione], the IC50 was determined as 0.55 nM in assay [1], 1040 nM in the assay with Ba/F3_EGFR WT cells (setting [2]), 91.7 nM in the assay on BaF3_EGFR LR/CS cells (setting [3]) and 96.2 nM in the assay with BaF3_EGFR d19/CS cells (setting [4]).

Consider `CC1(C)CC(n2cc(-c3ncnc4oc(-c5ccccc5)cc34)c(-c3ccc(F)cc3)n2)CCO1` (stereo not drawn) [Example 202, 4-[1-(2,2-dimethyloxan-4-yl)-3-(4-fluorophenyl)-1H-pyrazol-4-yl]-6-phenylfuro[2,3-d]pyrimidine], for which the IC50 turned out to be 1.48 nM in assay [1], 2350 nM with Ba/F3_EGFR WT cells (setting [2]), 219 nM in the assay on BaF3_EGFR LR/CS cells (setting [3]) and 512 nM with BaF3_EGFR d19/CS cells (setting [4]).

Regarding `C[C@@H]1OCC[C@H]1n1cc(-c2ncnc3oc(-c4ccccc4)cc23)c(-c2ccc(F)cc2)n1` (racemic) [Example 199, 2,5-anhydro-1,3,4-trideoxy-3-[3-(4-fluorophenyl)-4-(6-phenylfuro[2,3-d]pyrimidin-4-yl)-1H-pyrazol-1-yl]pentitol], the IC50 in assay [1] was found to be 0.92 nM; with Ba/F3_EGFR WT cells (setting [2]) it was 3340 nM; in the assay on BaF3_EGFR LR/CS cells (setting [3]), 85.4 nM; in the assay on BaF3_EGFR d19/CS cells (setting [4]), 294 nM.

Regarding `Cc1nn(C)cc1-c1cc2c(-c3cn([C@H]4C[C@H](C#N)C4)nc3-c3ccc(F)cc3)ncnc2o1` [Example 279, (1r,3r)-3-{4-[6-(1,3-dimethyl-1H-pyrazol-4-yl)furo[2,3-d]pyrimidin-4-yl]-3-(4-fluorophenyl)-1H-pyrazol-1-yl}cyclobutane-1-carbonitrile], the IC50 in assay [1] was 0.106 nM; in the assay on Ba/F3_EGFR WT cells (setting [2]), 476 nM; in the assay with BaF3_EGFR LR/CS cells (setting [3]), 8.89 nM; with BaF3_EGFR d19/CS cells (setting [4]), 5.64 nM.

As to `O=S1(=O)CC(n2cc(-c3ncnc4oc(-c5cccnc5)cc34)c(-c3ccc(F)cc3)n2)C1` [Example 164, 3-{3-(4-fluorophenyl)-4-[6-(pyridin-3-yl)furo[2,3-d]pyrimidin-4-yl]-1H-pyrazol-1-yl}-1λ6-thietane-1,1-dione], the IC50 was 0.29 nM in assay [1], 888 nM in the assay on Ba/F3_EGFR WT cells (setting [2]), 26.3 nM with BaF3_EGFR LR/CS cells (setting [3]) and 36.3 nM with BaF3_EGFR d19/CS cells (setting [4]).

As for `Cc1c(-c2cc3c(-c4cn(CC(C)(C)O)nc4-c4ccc(F)cc4)ncnc3o2)cnn1C` [Example 258, 1-{4-[6-(1,5-dimethyl-1H-pyrazol-4-yl)furo[2,3-d]pyrimidin-4-yl]-3-(4-fluorophenyl)-1H-pyrazol-1-yl}-2-methylpropan-2-ol], the IC50 in assay [1] came to 0.16 nM; in the assay on Ba/F3_EGFR WT cells (setting [2]), 976 nM; in the assay with BaF3_EGFR LR/CS cells (setting [3]) it was 12.7 nM; in the assay on BaF3_EGFR d19/CS cells (setting [4]), 18.5 nM.

`FCCn1cc(-c2ncnc3oc(-c4ccccc4)cc23)c(-c2ccc(F)cc2)n1` [Example 135, 4-[1-(2-Fluoroethyl)-3-(4-fluorophenyl)-1H-pyrazol-4-yl]-6-phenylfuro[2,3-d]pyrimidine]: the IC50 in assay [1] was determined as 0.33 nM; in the assay with Ba/F3_EGFR WT cells (setting [2]), 1160 nM; with BaF3_EGFR LR/CS cells (setting [3]), 17.1 nM; in the assay on BaF3_EGFR d19/CS cells (setting [4]), 31.9 nM.

With `O=S1(=O)CC(n2cc(-c3ncnc4oc(-c5cccnn5)cc34)c(-c3ccc(F)cc3)n2)C1` [Example 187, 3-{3-(4-fluorophenyl)-4-[6-(pyridazin-3-yl)furo[2,3-d]pyrimidin-4-yl]-1H-pyrazol-1-yl}-1λ6-thietane-1,1-dione], the IC50 is 3.36 nM in assay [1], 9020 nM in the assay with Ba/F3_EGFR WT cells (setting [2]), 1240 nM in the assay with BaF3_EGFR LR/CS cells (setting [3]) and 589 nM with BaF3_EGFR d19/CS cells (setting [4]).

As to `CC(=O)NCCCn1cc(-c2ncnc3oc(-c4ccccc4)cc23)c(-c2ccc(F)cc2)n1` [Example 141, N-{3-[3-(4-Fluorophenyl)-4-(6-phenylfuro[2,3-d]pyrimidin-4-yl)-1H-pyrazol-1-yl]propyl}acetamide], the IC50 worked out at 0.25 nM in assay [1], 921 nM with Ba/F3_EGFR WT cells (72 h), 43.6 nM with BaF3_EGFR LR/CS cells (72 h) and 66.1 nM in the assay on BaF3_EGFR d19/CS cells (72 h).

For `O=C(c1ccccc1)N1CC=C(c2cc3c(-c4cn(C5CS(=O)(=O)C5)nc4-c4ccc(F)cc4)ncnc3o2)CC1` [Example 180, 3-{4-[6-(1-benzoyl-1,2,3,6-tetrahydropyridin-4-yl)furo[2,3-d]pyrimidin-4-yl]-3-(4-fluorophenyl)-1H-pyrazol-1-yl}-1λ6-thietane-1,1-dione], the IC50 in assay [1] was determined as 0.39 nM; with Ba/F3_EGFR WT cells (setting [2]), 2920 nM; with BaF3_EGFR LR/CS cells (setting [3]) it was 128 nM; with BaF3_EGFR d19/CS cells (setting [4]), 161 nM.

On to `O=S1(=O)CC(n2cc(-c3ncnc4oc(-c5c[nH]cn5)cc34)c(-c3ccc(F)cc3)n2)C1` [Example 216, 3-{3-(4-fluorophenyl)-4-[6-(1H-imidazol-4-yl)furo[2,3-d]pyrimidin-4-yl]-1H-pyrazol-1-yl}-16-thietane-1,1-dione], for which the IC50 in assay [1] worked out at 0.06 nM; in the assay on Ba/F3_EGFR WT cells (setting [2]), 2130 nM; with BaF3_EGFR LR/CS cells (setting [3]), 31.1 nM; in the assay with BaF3_EGFR d19/CS cells (setting [4]) it was 58.5 nM.

Regarding `O=S1(=O)CC(n2cc(-c3ncnc4oc(-c5cccc(CN6CCOCC6)c5)cc34)c(-c3ccc(F)cc3)n2)C1` [Example 190, 3-[3-(4-fluorophenyl)-4-(6-{3-[(morpholin-4-yl)methyl]phenyl}furo[2,3-d]pyrimidin-4-yl)-1H-pyrazol-1-yl]-16-thietane-1,1-dione], the IC50 in assay [1] amounted to 0.18 nM; in the assay on Ba/F3_EGFR WT cells (setting [2]) it was 2160 nM; with BaF3_EGFR LR/CS cells (setting [3]) it was 64 nM; with BaF3_EGFR d19/CS cells (setting [4]), 59.1 nM.

Consider `CC(=O)N1CC=C(c2cc3c(-c4cn(CC(C)(C)O)nc4-c4ccc(F)cc4)ncnc3o2)CC1` [Example 138, 1-[4-{4-[3-(4-Fluorophenyl)-1-(2-hydroxy-2-methylpropyl)-1H-pyrazol-4-yl]furo[2,3-d]pyrimidin-6-yl}-3,6-dihydropyridin-1 (2H)-yl]ethan-1-one], for which the IC50 in assay [1] was 0.5 nM; in the assay on Ba/F3_EGFR WT cells (setting [2]), 1390 nM; with BaF3_EGFR LR/CS cells (setting [3]), 94.4 nM; with BaF3_EGFR d19/CS cells (setting [4]), 63.7 nM.

For `CC(=O)N1CC(C#Cc2cc3c(-c4cn(C5CS(=O)(=O)C5)nc4-c4ccc(F)cc4)ncnc3o2)C1` [Example 140, 3-[4-{6-[(1-Acetylazetidin-3-yl)ethynyl]furo[2,3-d]pyrimidin-4-yl}-3-(4-fluorophenyl)-1H-pyrazol-1-yl]-16-thietane-1,1-dione], the IC50 in assay [1] was 3.32 nM; in the assay on Ba/F3_EGFR WT cells (setting [2]), 5680 nM; with BaF3_EGFR LR/CS cells (setting [3]), 1630 nM; in the assay with BaF3_EGFR d19/CS cells (setting [4]) it was 916 nM.

As to `Fc1ccc(-c2nn([C@H]3CCCOC3)cc2-c2ncnc3oc(-c4ccccc4)cc23)cc1` (single isomer, unassigned) [Example 137], the IC50 in assay [1] came to 0.69 nM; with Ba/F3_EGFR WT cells (setting [2]), 2500 nM; in the assay on BaF3_EGFR LR/CS cells (setting [3]) it was 40.5 nM; in the assay on BaF3_EGFR d19/CS cells (setting [4]), 71.3 nM.

As for `Cn1cc(-c2cc3c(-c4cn(C5CS(=O)(=O)C5)nc4-c4ccc(F)cc4)ncnc3o2)cn1` [Example 250, 3-{3-(4-fluorophenyl)-4-[6-(1-methyl-1H-pyrazol-4-yl)furo[2,3-d]pyrimidin-4-yl]-1H-pyrazol-1-yl}-16-thietane-1,1-dione], the IC50 in assay [1] turned out to be 0.05 nM; in the assay with Ba/F3_EGFR WT cells (setting [2]), 696 nM; in the assay on BaF3_EGFR LR/CS cells (setting [3]), 3.54 nM; in the assay with BaF3_EGFR d19/CS cells (setting [4]), 9.26 nM.

Take `O=S1(=O)CC(n2cc(-c3ncnc4[nH]c(-c5ccccc5)nc34)c(-c3ccc(F)cc3)n2)C1` [Example 127, 3-[3-(4-Fluorophenyl)-4-(8-phenyl-9H-purin-6-yl)-1H-pyrazol-1-yl]-1λ6-thietane-1,1-dione]: the IC50 in assay [1] amounted to 0.09 nM; in the assay on Ba/F3_EGFR WT cells (setting [2]), 3680 nM; in the assay with BaF3_EGFR LR/CS cells (setting [3]) it was 15.8 nM; in the assay on BaF3_EGFR d19/CS cells (setting [4]) it was 24.6 nM.

As for `Fc1ccc(-c2nn([C@H]3CCOC[C@@H]3F)cc2-c2ncnc3oc(-c4ccccc4)cc23)cc1` (single isomer, unassigned) [Example 152], the IC50 in assay [1] amounted to 1.33 nM; in the assay with Ba/F3_EGFR WT cells (setting [2]), 2020 nM; in the assay with BaF3_EGFR LR/CS cells (setting [3]), 22.5 nM; in the assay on BaF3_EGFR d19/CS cells (setting [4]), 88.9 nM.

Consider `O=S1(=O)CC(n2cc(-c3ncnc4oc(-c5ccns5)cc34)c(-c3ccc(F)cc3)n2)C1` [Example 218, 3-{3-(4-fluorophenyl)-4-[6-(1,2-thiazol-5-yl)furo[2,3-d]pyrimidin-4-yl]-1H-pyrazol-1-yl}-1λ6-thietane-1,1-dione], for which the IC50 turned out to be 0.36 nM in assay [1], 1440 nM with Ba/F3_EGFR WT cells (setting [2]), 158 nM in the assay on BaF3_EGFR LR/CS cells (setting [3]) and 103 nM in the assay with BaF3_EGFR d19/CS cells (setting [4]).

For the compound `Cc1cnc(-c2cc3c(-c4cn(C5CS(=O)(=O)C5)nc4-c4ccc(F)cc4)ncnc3o2)o1` [Example 234, 3-{3-(4-fluorophenyl)-4-[6-(5-methyl-1,3-oxazol-2-yl)furo[2,3-d]pyrimidin-4-yl]-1H-pyrazol-1-yl}-1λ6-thietane-1,1-dione], the IC50 in assay [1] came to 3.6 nM; in the assay with Ba/F3_EGFR WT cells (setting [2]), 2120 nM; in the assay on BaF3_EGFR LR/CS cells (setting [3]), 438 nM; in the assay with BaF3_EGFR d19/CS cells (setting [4]) it was 309 nM.
